Test results as given in patent publication US6165984A, “Naringin and naringenin as inhibitors of acyl CoA-cholesterol-o-acyltransferase” (Korea Institute of Science & Technology, priority 1997, dated 2000).

Tests used:
[1] = tested on: creatin kinase in the liver; conditions: in vivo; cited from earlier work
hepatic cells = conditions: rabbits, 1% cholesterol diet, six weeks; 1 mg/kg Lovastatin, 0.1% naringin
Method: The same procedure as in (Step 1) was repeated except that 30 three-month old New Zealand White rabbits (Yeonam Horticulture and Animal Husbandry College, Korea) each weighing about 2.5 to 2.6 kg were used in place of the rats, and the rabbits were fed for six weeks with three different diets, i.e., RC4 diet containing 1% cholesterol (Control group); 1% cholesterol plus 1 mg/kg Lovastatin® (Comparative group); and 1% cholesterol plus 0.1% naringin, respectively.
Thereafter, the livers were separated from the rabbits and the histopathological observations were carried out as follows.
The rabbits were anesthetized with an intramuscular injection of ketamine (75 mg/kg) and subjected to an abdominal incision. […] The fixed liver was washed sufficiently with water, dehydrated stepwise with 70%, 80%, 90% and 100% ethanol and, then, embedded in paraffin. The embedded liver was sectioned in 4 μm thickness with a microtome and stained with hematoxylin and eosin. The stained liver specimen was made transparent with xylene, mounted with permount, and then observed under a microscope to confirm the presence of lesions.

[2] = tested on: macrophage-lipid complex on the arterial endothelium; test: Fatty streak analysis: macrophage-lipid complex on main artery of cholesterol-fed rabbits (Example 6); assay type: in vivo, New Zealand White rabbit; conditions: 1 mg/kg Lovastatin
Excerpt: RC4 diet comprises 7.6% moisture, 22.8% crude protein, 2.8% crude fat, 8.8% crude ash, 14.4% crude cellulose and 43.6% soluble nitrogen-free substances. The rabbits were bred for 6 weeks while being allowed free access to the diets and water. The rabbits bred in (Step 1) were sacrificed and their chest were incised. The main artery was cut out therefrom in a length of about 5 cm downward from the site 1 cm above the aortic valve and the fat surrounding the main artery was removed. The main artery was incised in the middle along the longitudinal axis and pinned to a dish. The moist artery was photographed and, then, staining of fatty streak was carried out in accordance with the method of […]., et al. (J. Lab. Clin. […] A part of the incised main artery was washed three times by 2 min. with anhydrous propylene glycol and stained for 30 min. with a saturated solution of Oil Red O (ORO, Sigma Co.) dissolved in propylene glycol. Thereafter, the artery was washed twice by 3 min. with 85% propylene glycol to remove remaining staining solution and, then washed with physical saline. The artery was photographed and the photograph was traced. The area of stained region (fatty streak region) was determined with an image analyzer (LEICA, Q-600, Germany) and its proportion (%) to the total arterial area was calculated. On the other hand, the other part of the main artery was stained in accordance with hematoxylin-eosin (H&E) and Masson's trichrome staining methods and observed under a microscope to confirm whether the macrophage-lipid complexes were accumulated in the intima, internus, elastic lamina and media.

[3] = Blood total cholesterol and triglyceride in cholesterol-fed rabbits (Example 6); assay type: in vivo, New Zealand White rabbit; conditions: 1% cholesterol diet, 6 weeks, 1 mg/kg Lovastatin, 0.1% naringin or naringenin
Method: Blood samples were taken from the rats of the three dietary groups and plasma HDL fractions were separated therefrom by using HDL-cholesterol reagent (Sigma Chemical Co., Cat. No. 352-3) containing dextran-sulfate. Total cholesterol and HDL-cholesterol levels were determined by using Sigma Diagnostic Kit Cat. No. 352-100(Sigma Chemical Co., […] et al., Clin. Chem., 20, 470-475(1974)). Neutral lipid level was determined by using Sigma Diagnostic Kit Cat. No. 339-50(Bucolo, G. and David, H., Clin. Chem., 19, 476-482(1973)). The result is shown in Table III, wherein the total plasma cholesterol levels in naringin and naringenin-fed rat groups decreased by 32% and 18%, respectively, as compared with that of the control group. […] RC4 diet comprises 7.6% moisture, 22.8% crude protein, 2.8% crude fat, 8.8% crude ash, 14.4% crude cellulose and 43.6% soluble nitrogen-free substances. The rabbits were bred for 6 weeks while being allowed free access to the diets and water. Further, blood samples were taken from the rabbits and total cholesterol and triglyceride levels were determined in accordance with the same procedure in Example 4.

In the case of `CC[C@H](C)C(=O)O[C@H]1C[C@@H](C)C=C2C=C[C@H](C)[C@H](CC[C@@H]3C[C@@H](O)CC(=O)O3)[C@H]21` [Lovastatin, reference compound], the adverse side effect [1] is given as “increasing creatin kinase in the liver”, the “microscopic features of the liver (FIGS. 2A-2C)” value (hepatic cells) is given as “irregularly arranged and enlarged and a large amount of fat is deposited therein” and the “layer of macrophage-lipid complex on the arterial endothelium (FIGS. 1A-1C)” value ([2]; 0.1% naringin, control: thick layer) is given as “no or very thin layers of macrophage-lipid complex”. For the same molecule, the “area of macrophage-lipid complex accumulated on the arterial endothelium, compared to control group” value ([2]; 1% cholesterol diet, 6 weeks, 0.1% naringin or naringenin) was “decreased significantly”, the “M-L (macrophage-lipid) complex area” value ([2]; proportion of total arterial area, 1% cholesterol diet, 6 weeks, 0.1% naringin or naringenin, control 35) was 5% and the Triglyceride ([3]; control 56) was 66 mg/dL. For the same molecule, the Total cholesterol ([3]; control 1143) was 1210 mg/dL.
